The record followed here is article PMC3821527 (Bioorganic & medicinal chemistry letters, 2013).

In assay [1] the target is T1, AAC(6′)-Ib (Klebsiella pneumoniae, UniProt P19650). Kind of assay: AAC. The format is biochemical. To be noted: for inhibition of the acetylation of kanamycin A: 100 μM compound, 18 μM kanamycin A, 50 μM acetyl CoA, 10% DMSO.
Assay [2] addresses T1, AAC(6′)-Ib. The assay can be described thus: AAC. It is filed as biochemical. To be noted: Lineweaver-Burk plots; for mode of inhibition with respect to acetyl CoA: variable acetyl CoA; for mode of inhibition with respect to kanamycin A: variable kanamycin A.

T1 sequence (P19650 whole entry): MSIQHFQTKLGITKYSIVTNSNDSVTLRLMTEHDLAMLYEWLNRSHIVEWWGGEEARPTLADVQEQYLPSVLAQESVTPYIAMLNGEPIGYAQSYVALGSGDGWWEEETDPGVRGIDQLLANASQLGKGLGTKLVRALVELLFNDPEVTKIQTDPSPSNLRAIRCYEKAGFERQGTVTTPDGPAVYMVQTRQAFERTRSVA

As to `O=C(O)c1ccccc1-c1ccc(C=C2C(=O)N(c3ccccc3)C(=S)N(c3ccccc3)C2=O)o1` [Compound 2, 2-{5-[(4,6-dioxo-1,3-diphenyl-2-thioxotetrahydro-5(2H)-pyrimidinylidene)methyl]-2-furyl}benzoic acid], at AAC(6′)-Ib [1], the “inhibition of the acetylation of kanamycin A” value (“inhibition … of kanamycin A” below) is “significant inhibition”. In addition, at AAC(6′)-Ib [2], the “mode of inhibition with respect to acetyl CoA” value is “noncompetitive” and the “mode of inhibition with respect to kanamycin A” value was “competitive”.
As for `O=C1NC(=O)N(c2ccc(Cl)cc2)C(=O)/C1=C\c1ccco1` [Compound 2b, 1-(4-chlorophenyl)-5-(2-furylmethylene)-2,4,6(1H,3H,5H)-pyrimidinetrione], the “inhibition … of kanamycin A” value against AAC(6′)-Ib [1] was “weaker inhibition”.
In the case of `Cc1cccc(N2C(=O)/C(=C/c3ccccc3OCc3ccc(C(=O)O)cc3)C(=O)NC2=S)c1` [Compound 1, 4-[(2-{[1-(3-methylphenyl)-4,6-dioxo-2-thioxotetrahydro-5(2H)-pyrimidinylidene]methyl}phenoxy)methyl]benzoic acid], the “inhibition … of kanamycin A” value against AAC(6′)-Ib [1] is on record as “modest inhibition”. For the same compound, on AAC(6′)-Ib [2], the “mode of inhibition with respect to acetyl CoA” value is recorded as “noncompetitive” and the “mode of inhibition with respect to kanamycin A” value is reported as “competitive”.
In the case of `O=C1C(=Cc2ccco2)C(=O)N(c2ccccc2)C(=O)N1c1ccccc1` [Compound 2d], the “inhibition … of kanamycin A” value against AAC(6′)-Ib [1] is “lack of activity”.
On to `O=C1C(=Cc2ccco2)C(=O)N(c2ccccc2)C(=S)N1c1ccccc1` [Compound 2c], for which, at AAC(6′)-Ib [1], the “inhibition … of kanamycin A” value was “lack of activity”.
For `O=C1/C(=C/c2ccco2)C(=O)N(c2ccc(Br)cc2)C(=S)N1c1ccccc1` [Compound 5309471], the “inhibitory activity in the presence of 0.01% Triton X-100” value on AAC(6′)-Ib [1] (0.01% Triton X-100, to rule out non-specific protein aggregation) is listed as “did not show the same level of inhibitory activity”.
